Values of other authors, collected in US9629846B1, “Nutritional supplements for women desiring to become pregnant, and pregnant and nursing women” (Argent Development Group, LLC, priority 2013, dated 2017).

Key:
[1] = nutrient depletion
[2] = dietary iron, heme versus non-heme

absorption [2] [%] | Compound | effect on folate, magnesium and Vitamin B12 levels [1]
 | CN(C)C(=N)N=C(N)N [metformin] | reduce folate, magnesium, and Vitamin B12 levels
30 | Heme iron | 
